One series concerns the target T1, hKCNQ2/3 (Homo sapiens, UniProt O43525+O43526).
T1 construct: expressed in transfected cells; host or cells: CHO
In words: cell-based. The text has this:
Test Method 1: hKCNQ2/3 Thallium Flux Assay
Test Objective: To test the in vitro concentration-response relationship of compounds using FLIPR thallium flux assay in CHO cell lines stably expressing hKCNQ2/3.
According to the split ratio, the cells were transferred to another T-75 flask containing complete cell growth medium. Note: To maintain logarithmic growth, the cells should be kept in a subconfluent monolayer state. Based on the cell doubling time, the cells were passaged every 2-3 days.
• (1) Day 1 - Cell preparation: Cells were digested as described above, and cell density and viability were determined using a Cell Countess. The volume of the single-cell suspension was adjusted with complete cell growth medium. Then, hKCNQ2/3_CHO cells were seeded onto PDL-precoated 384-well plates at a density of approximately 20,000 cells/well (30 µL/well). The plates were then incubated overnight in a 37°C, 5% CO2 humidified air incubator. • (2) Day 2 - Compound preparation: Test compounds were diluted with dimethyl sulfoxide (DMSO) to stock concentrations and stored in a -20°C freezer. A compound addition program was set up on the ECHO liquid handler, and compounds were added to the plates using the ECHO liquid handler. Retigabine (RTG) was used as a positive control at a highest concentration of 100 µM with 3-fold serial dilutions for a total of 9 doses. Buffer containing 5 mM K^+ and 1 mM Tl^+ was added to the plates. Notes: 1) K2SO4 and Tl2SO4 were prepared in 1× chloride-free buffer. Depending on the voltage-gated potassium channel involved, the concentrations of Tl^+ and K^+ should be adjusted. Tl^+ concentration is approximately 0.5-5 mM, and K^+ concentration is approximately 5-30 mM. 2) Each 1 mM solution of K2SO4 and Tl2SO4 contains 2 mM K^+ and Tl^+; the final concentration should be calculated based on the ion concentration. 3) TlCl readily precipitates and a chloride-free buffer is required. • (3) Day 2 -Assay testing: Once the cells reached the desired confluence, the cell assay plates were removed from the incubator. Assay buffer and diluted Tl^+ dye (Molecular Devices # R8222) were prepared. The medium was discarded using a Bravo liquid handler, and 25 µL of Tl^+ dye was added to each well. After 1 hour of incubation, the cell assay plates, composite plates and FLIPR tips were placed in the FLIPR^TETRA (Molecular Devices, USA) for FLIPR detection. After setting up the tips, baseline readings were taken for 60 seconds, then 12.5 µL was added from the composite plate (3×) to the cell assay plate, and data were recorded for at least 5 minutes. • (4) Data processing: Maximum signals were generated by the FLIPR software. […] Data quality control: S/B > 2.00, Z factor > 0.50.
• (1) Day 1 - Cell preparation: Cells were digested as described above, and cell density and viability were determined using a Cell Countess. The volume of the single-cell suspension was adjusted with complete cell growth medium. Then, hKCNQ2/3_CHO cells were seeded onto PDL-precoated 384-well plates at a density of approximately 20,000 cells/well (30 µL/well). The plates were then incubated overnight in a 37°C, 5% CO2 humidified air incubator. • (2) Day 2 - Compound preparation: Test compounds were diluted with dimethyl sulfoxide (DMSO) to stock concentrations and stored in a -20°C freezer. A compound addition program was set up on the ECHO liquid handler, and compounds were added to the plates using the ECHO liquid handler. Retigabine (RTG) was used as a positive control at a highest concentration of 100 µM with 3-fold serial dilutions for a total of 9 doses. Buffer containing 5 mM K^+ and 1 mM Tl^+ was added to the plates. Notes: 1) K2SO4 and Tl2SO4 were prepared in 1× chloride-free buffer. Depending on the voltage-gated potassium channel involved, the concentrations of Tl^+ and K^+ should be adjusted. Tl^+ concentration is approximately 0.5 mM -5 mM, and K^+ concentration is approximately 5 mM -30 mM.

In series [1] the test system is maximal electroshock-induced epilepsy model. In words: Maximal electroshock-induced epilepsy model, behavioral pharmacodynamics. The series is classed as in vivo. Particulars: dose 5 mg/kg, oral, one hour before electrical stimulation; male CD-1 mice. An excerpt: Assay Example 2: Evaluation of the behavioral pharmacodynamics of the test compounds in a maximal electroshock-induced epilepsy model
This study used behavioral tests in male CD-1 mice to investigate the effects of test compounds on acute epileptic seizures behavior induced by maximal electroshock.
Male CD-1 mice (25 to 35g) were used as the experimental animals and fed with standard feed (Beijing Vital River Laboratory Animal Technology Co., Ltd.).
After arriving at the animal facility, the experimental animals needed to acclimatize for at least one week. The mice were observed daily for vital signs, and randomly divided into groups according to their body weights one day before the drug administration. One hour before the electrical stimulation, different dosages of the test compound were orally administered to each group. On the day of the assay, the male CD-1 mice in each group were anesthetized locally at the cornea with 2% lidocaine. Then, silver bipolar electrodes were used to electrically stimulate the cornea of the mice with 18 mA, 60 Hz, a pulse width of 0.6 ms, and a stimulation time of 1 s to induce seizures. Subsequently, the latency of seizures and the duration of limb rigidity in mice after the electrical stimulation were observed, and the protection rate from seizures for each group was statistically analyzed.
Background: In the maximal electroshock model the usual endpoint is tonic extension of the hind limbs.

The nature of series [2]: Pharmacokinetic evaluation in mice (IV and PO). The class given is in vivo. As to conditions: mouse, plasma, CD-1 mice; for half-life: IV, read-out: Half-life T1/2 (IV) (converted); for AUC(0-t): PO, read-out: Area under the concentration-time curve AUC0-last PO; for bioavailability: read-out: Bioavailability F; for clearance: read-out: Clearance CL; for Cmax: read-out: Peak plasma concentration Cmax; for Vd: read-out: Volume of distribution Vdss. The method, then:
Test Method 2: Pharmacokinetic Evaluation in Mice
Assay method: Test compounds were mixed with 5% DMSO / 60% polyethylene glycol (PEG400) / 35% water, vortexed and sonicated to obtain a clear 0.2 mg/mL solution, which was then filtered through a microporous membrane before use. Male CD-1 mice weighing 25-35 g were selected. The candidate compound solution was administered intravenously at a dose of 1 mg/kg. The candidate compound solution was orally administered at a dose of 5 mg/kg after fasting. Blood samples (25 µL each) were collected at 0.083, 0.25, 0.5, 1, 2, 4, 8, 12 and 24 hours after administration, and placed into commercial anticoagulant tubes pre-containing EDTA-K2. The tubes were centrifuged for 10 minutes to separate plasma, which was then stored at -60°C. The content of the target compound in plasma samples was determined by LC/MS/MS method, and pharmacokinetic parameters were calculated using Phoenix WinNonlin software (Pharsight, USA).
Tlast: time of the last detection point. AUC0-last: (Area Under the Concentration-Time Curve) refers to the area enclosed by the plasma drug concentration curve and the time axis. F (Bioavailability) is a measure of the rate and extent to which a drug is absorbed into the systemic circulation, serving as a critical indicator for evaluating the degree of drug absorption. […]

pEC50: −log10 of the molar value. Like-named read-outs stand apart in the source and are kept apart here.

Three compounds from patent publication EP4810483A1, “6- AND 5-HETEROARYL DERIVATIVES AND USE THEREOF” (CMS Research & Development Pte. Ltd., priority 2023, dated 2025) can be followed below.

T1 sequence (O43526 whole entry): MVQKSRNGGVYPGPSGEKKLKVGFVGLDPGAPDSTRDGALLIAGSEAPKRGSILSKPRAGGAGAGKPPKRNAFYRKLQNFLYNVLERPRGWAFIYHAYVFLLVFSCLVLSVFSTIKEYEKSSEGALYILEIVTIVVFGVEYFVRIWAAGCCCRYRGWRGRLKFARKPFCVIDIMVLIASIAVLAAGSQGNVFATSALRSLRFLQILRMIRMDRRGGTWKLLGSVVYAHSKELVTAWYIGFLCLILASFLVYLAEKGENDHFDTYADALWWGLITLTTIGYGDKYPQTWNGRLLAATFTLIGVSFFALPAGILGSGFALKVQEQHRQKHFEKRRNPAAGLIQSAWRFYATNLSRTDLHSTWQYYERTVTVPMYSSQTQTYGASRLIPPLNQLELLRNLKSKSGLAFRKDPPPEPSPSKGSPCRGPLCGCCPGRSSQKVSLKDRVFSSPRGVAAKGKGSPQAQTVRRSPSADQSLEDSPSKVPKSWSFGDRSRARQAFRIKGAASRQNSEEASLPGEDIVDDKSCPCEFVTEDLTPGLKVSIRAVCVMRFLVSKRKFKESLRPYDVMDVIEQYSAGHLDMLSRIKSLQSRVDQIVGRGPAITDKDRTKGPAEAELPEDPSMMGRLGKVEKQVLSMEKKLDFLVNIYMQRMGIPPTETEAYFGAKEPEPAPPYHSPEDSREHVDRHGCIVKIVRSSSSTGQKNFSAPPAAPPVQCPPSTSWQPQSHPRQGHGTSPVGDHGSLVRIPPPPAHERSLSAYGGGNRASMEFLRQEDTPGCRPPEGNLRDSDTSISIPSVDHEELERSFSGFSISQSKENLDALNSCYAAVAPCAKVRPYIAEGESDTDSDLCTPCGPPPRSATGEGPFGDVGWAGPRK
T1 sequence (O43525 whole entry): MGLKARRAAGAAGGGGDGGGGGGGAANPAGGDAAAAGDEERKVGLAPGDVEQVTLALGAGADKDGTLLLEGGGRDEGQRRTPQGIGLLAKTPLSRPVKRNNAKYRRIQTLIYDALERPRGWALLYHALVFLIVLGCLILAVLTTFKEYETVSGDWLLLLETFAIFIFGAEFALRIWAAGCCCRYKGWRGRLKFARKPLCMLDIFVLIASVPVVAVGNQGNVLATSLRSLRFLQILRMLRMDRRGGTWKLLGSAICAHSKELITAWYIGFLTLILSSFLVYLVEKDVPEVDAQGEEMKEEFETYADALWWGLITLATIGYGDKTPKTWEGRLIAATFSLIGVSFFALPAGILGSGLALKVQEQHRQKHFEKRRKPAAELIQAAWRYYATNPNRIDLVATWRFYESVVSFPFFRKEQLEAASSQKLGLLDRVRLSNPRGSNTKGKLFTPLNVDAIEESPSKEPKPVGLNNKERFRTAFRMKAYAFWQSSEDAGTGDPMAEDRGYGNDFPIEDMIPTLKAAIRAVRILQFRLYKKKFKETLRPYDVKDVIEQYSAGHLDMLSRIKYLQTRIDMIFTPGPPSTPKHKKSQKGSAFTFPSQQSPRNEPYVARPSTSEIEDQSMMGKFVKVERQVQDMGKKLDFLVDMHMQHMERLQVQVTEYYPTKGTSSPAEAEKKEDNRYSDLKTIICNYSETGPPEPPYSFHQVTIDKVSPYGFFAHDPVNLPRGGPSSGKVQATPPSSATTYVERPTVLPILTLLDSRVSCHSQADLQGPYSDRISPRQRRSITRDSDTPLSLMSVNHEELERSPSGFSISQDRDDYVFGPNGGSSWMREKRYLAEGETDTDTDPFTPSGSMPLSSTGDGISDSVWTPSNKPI

As usually defined, the pEC50 is −log10 of the EC50, conventionally taken in molar units. What is called bioavailability is the share of a dose that reaches the circulation, judged against a reference dose that is usually intravenous. As for `Cc1c(NC(=O)CC(C)(C)C)n(C)c2cc(Nc3ccc(F)cc3)ccc12` [Compound 1], on hKCNQ2/3, the pEC50 was 6.02. For the same compound, the “Seizure incidence (%)” value in series [1] was 16.7%. Moreover, in series [2] (dose IV:0.5, PO:2 mg/kg), the half-life is 1.83 h, the AUC(0-t) was determined as 2.04 µM·h, the bioavailability was 79.6% and the clearance stood at 34.8 mL/min/kg. Further, in series [2] (dose IV:0.5, PO:2 mg/kg), the Cmax was found to be 322 nM and the Vd came out at 5.16 L/kg. In series [2] (dose IV:1, PO:5 mg/kg), the half-life is 1.63 h, the AUC(0-t) was determined as 4.57 µM·h, the bioavailability was 83.9% and the clearance worked out at 41.8 mL/min/kg. In series [2] (dose IV:1, PO:5 mg/kg), the Cmax was found to be 596 nM and the Vd is 5.06 L/kg.
Regarding `Cc1c(NC(=O)CC(C)(C)C)n(C)c2cc(Nc3ccc(C(F)(F)F)cc3)ccc12` [Compound 5], the pEC50 on hKCNQ2/3 was 6.28. Further, the “Seizure incidence (%)” value in series [1] was 16.7%. Moreover, in series [2] (dose IV:0.5, PO:2 mg/kg), the half-life is 5.9 h, the bioavailability was 64%, the clearance is 9.1 mL/min/kg and the Vd came out at 3.97 L/kg.
As to `Cc1nc(Nc2ccc3c(C)c(NC(=O)CC(C)(C)C)n(C)c3c2)ccc1F` [Compound 41], at hKCNQ2/3, the pEC50 was 6.54. In addition, the “Seizure incidence (%)” value in series [1] was 0%. Moreover, in series [2] (dose IV:1, PO:5 mg/kg), the half-life is 0.7 h, the AUC(0-t) worked out at 21.4 µM·h, the bioavailability was 78.2% and the clearance is 8.9 mL/min/kg. In series [2] (dose IV:1, PO:5 mg/kg), the Cmax amounted to 4580 nM and the Vd stood at 0.6 L/kg.
